According to patent publication US11897848B2, “Crystalline forms of ozanimod and processes for preparation thereof” (RECEPTOS LLC, priority 2016, dated 2024):
Converted amounts (≈) assume the structure as drawn.

Legend:
Type in all cases: physicochemical
[1] = Hygroscopicity assessment by dynamic vapor sorption (DVS); conditions: for Weight Gain under 80% RH: DVS, 25° C.; for Hygroscopicity according to the criteria of hygroscopicity: based on weight gain under 80% RH
Procedure: Dynamic Vapor Sorption (DVS) is measured via an SMS (Surface Measurement Systems Ltd.) intrinsic DVS. Typical Parameters for DVS test are as follows: • Temperature: 25° C. • Gas and flow rate: N2, 200 mL/min • dm/dt: 0.002%/min • RH range: 0% RH to 95% RH
Dynamic vapor sorption (DVS) was applied to test hygroscopicity of Form CS9 with about 10 mg of samples. The DVS plot was substantially as depicted in FIG. 14.
Dynamic vapor sorption (DVS) was applied to test hygroscopicity of Form CS10 with about 10 mg of samples. The DVS plot is substantially as depicted in FIG. 15.
Dynamic vapor sorption (DVS) was applied to test hygroscopicity of Form CS11 with about 10 mg of samples. The DVS plot is substantially as depicted in FIG. 16.

[2] = Stability assessment in chamber with controlled temperature and relative humidity (XRPD, HPLC); conditions: for Stability (verdict in words): after storage for 2 weeks
Procedure: Sample of Form CS10 was placed in chamber with controlled temperature and relative humidity at 40° C./75% RH for 2 weeks, and then the solids were sampled for XRPD test. The XRPD pattern overlay was substantially as depicted in FIG. 23 (from top to bottom: XRPD pattern of ozanimod Form CS10 before and after being stored under 40° C./75% RH for 2 weeks).
Two samples of Form CS11 of ozanimod were placed in chamber with controlled temperature and relative humidity at 25° C./60% RH and 40° C./75% RH for 2 weeks. XRPD and HPLC were used to test the crystalline form and chemical purity. The XRPD overlay pattern was substantially as depicted in FIG. 24 (from top to bottom: XRPD pattern of ozanimod Form CS11 before and after being stored under 25° C./60% RH and 40° C./75% RH for 2 weeks).

[3] = Particle size distribution test (laser particle size analyzer, wet process); conditions: for MV (average particle size calculated by volume): dispersion medium Isopar G; for D10 / D50 / D90: volume distribution
Procedure: The particle size distribution test in the present disclosure is acquired by the S3500 laser particle size analyzer of Microtrac. Microtrac S3500 is equipped with the SDC (Sample Delivery Controller). The test is carried out by wet process, and the dispersion medium is Isopar G The parameters are as follow:
Certain amount of samples of Form CS9, Form CS10 and Form CS11 of ozanimod were taken for particle size distribution test.
The abbreviations used in the invention are explained as follows: • Mv: Average particle size calculated by volume. • D10: particle size which accounts for 10% of the particle size distribution (volume distribution). • D50: particle size which accounts for 50% of the particle size distribution (volume distribution), also known as the median diameter. • D90: particle size which accounts for 90% of the particle size distribution (volume distribution).

[4] = Solubility assessment in H2O, saturated solution measured by HPLC
Procedure: Form CS9 of ozanimod was suspended into H2O to obtain saturated solution. After being equilibrated for 1 h, 4 h and 24 h, concentrations of the saturated solutions were measured by HPLC.

Row | Structure (SMILES) | Weight Gain under 80% RH [1] | Hygroscopicity according to the criteria of hygroscopicity [1] | Crystalline form change by XRPD ([2]; 40° C./75% RH for 2 weeks) | Stability (verdict in words) [2] | MV (average particle size calculated by volume) [3] | D10 [3] | D50 [3] | D90 [3] | Chemical purity change by HPLC ([2]; 25° C./60% RH for 2 weeks) | Crystalline form change by XRPD ([2]; 25° C./60% RH for 2 weeks) | Chemical purity change by HPLC ([2]; 40° C./75% RH for 2 weeks) | Solubility in water (verdict in words) [4] | solubility at 1 h ([4]; water, thermodynamic from solid, equilibrated for 1 h) | solubility at 4 h ([4]; water, thermodynamic from solid, equilibrated for 4 h)
1 | CC(C)Oc1ccc(-c2nc(-c3cccc4c3CC[C@@H]4NCCO)no2)cc1C#N [Form CS10, ozanimod] | 1.02% | slightly hygroscopic | No form change | good stability | 317.2 μm | 65.87 μm | 254.8 μm | 669.0 μm | – | – | – | – | – | –
2 | CC(C)Oc1ccc(-c2nc(-c3cccc4c3CC[C@@H]4NCCO)no2)cc1C#N [Form CS11, ozanimod] | 0.57% | slightly hygroscopic | No form change | good stability | 137.7 μm | 27.13 μm | 110.4 μm | 286.6 μm | No form change and obvious purity decrease | No form change | No form change and obvious purity decrease | – | – | –
3 | CC(C)Oc1ccc(-c2nc(-c3cccc4c3CC[C@@H]4NCCO)no2)cc1C#N [Form CS9, ozanimod] | 2.88% | hygroscopic | – | – | 339.9 μm | 50.97 μm | 284.3 μm | 728.7 μm | – | – | – | good solubility in water | 470 µg/mL (≈ 1160 µM) | 360 µg/mL (≈ 890 µM)
